{
  "source": "patent US20240324590A1",
  "about": "“COMBINATIONS OF TRIAZOLINONE HERBICIDES WITH SAFENERS” (UPL CORPORATION LIMITED, priority 2021, published 2024)",
  "type_in_all_cases": "in vivo",
  "key": {"corn crop [1]": {"test_system": "corn crop", "test": "Height of corn plants after treatment, greenhouse", "conditions": "for Crop height (cm) at 14 DAA: safener 90 g ai/ha", "protocol": "(§1) The combination of flucarbazone with safeners selected from cyprosulfamid and isoxadifen were evaluated in terms of the increase or decrease in height of the treated corn crop (cm) and % phytotoxicity. The experimental evaluations were conducted under greenhouse conditions with 4 repetitions, using a spray volume of […]. The different corn varieties tested were SYN8A98 TLTG and XB 8010.\nThe observations for determining corn height were made at 14 DAA (days after application) of the herbicide. The treatment employed and the corresponding observations are detailed in the table 8 (i) & (ii) below: […]"}, "corn crop [2]": {"test_system": "corn crop", "test": "% phytotoxicity in corn crop after spraying tank mix", "conditions": "for Phytotoxicity (%) in corn crop: flucarbazone 30 g ai/ha, safener cyprosulfamid 66 / isoxadifen 38 / mefenpyr 30 g ai/ha", "protocol": "Treatment: The present invention has employed a tank mix combination of Flucarbazone and Cyprosulfamid as the safener to evaluate its percentage phytotoxicity and its efficacy in the control of weeds.\nThe tank mix combination of Flucarbazone and Cyprosulfamid as the safener was formulated and the combination was sprayed onto corn crop and the results on the phytotoxicity in corn were determined. These observations relating to % phytotoxicity were made during a time interval of over a month. The duration at which the % phytotoxicity were determined at time intervals as follows: 3 DAA (3 days after application), 5 DAA (5 days after application), 7 DAA (7 days after application), 14 DAA (14 days after application), 21 DAA (21 days after application); 28 DAA (28 days after application); 35 DAA (35 days after application); 42DAA (42 days after application).\n• (i) Treatment: The present invention has employed a tank mix of Flucarbazone and Isoxadifen as the safener to evaluate its percentage phytotoxicity in corn crop. • (ii) % Phytotoxicity: This % phytotoxicity was observed by the present inventors to be as high as 48% at 14 DAA in crops treated with Flucarbazone and Isoxadifen.\nB) Flucarbazone with Mefenpyr as the Safener • (i) Treatment: The present invention has employed a tank mix combination of Flucarbazone and […] as the safener to evaluate its percentage phytotoxicity in corn crop."}, "redroot pigweed": {"test_system": "redroot pigweed", "test": "% efficacy of weed control against redroot pigweed in corn crop", "conditions": "for % Efficacy for control of weeds: redroot pigweed in corn crop, flucarbazone 30 g ai/ha, cyprosulfamid 66 g ai/ha", "protocol": "The tank mix combination of Flucarbazone and Cyprosulfamid as the safener was formulated and the combination was sprayed onto corn crop and the results on the efficacy in weed control were determined."}, "corn crop [3]": {"test_system": "corn crop", "test": "% phytotoxicity on corn varieties, greenhouse", "conditions": "flucarbazone 45 g ai/ha alone", "protocol": "as §1\nThe observations for determining corn height were made at 7 DAA (days after application), 14 DAA and 21 DAA, of the herbicide. The treatment employed and the corresponding observations are detailed in the table 9 (i) & (ii) below: […]"}},
  "data": [
    {"smiles": "COc1nn(C(=O)NS(=O)(=O)c2ccccc2OC(F)(F)F)c(=O)n1C", "note": "[flucarbazone, Flucarbazone]", "values": [
      {"measurement": "Height of the corn plants", "setting": "corn crop [1]; 14 DAA, compared with untreated corn", "value": "reduction in height"},
      {"measurement": "Crop height (cm) at 14 DAA", "setting": "corn crop [1]; corn variety SYN8A98 TLTG, flucarbazone 30 g ai/ha", "value": 14, "unit": "cm"},
      {"measurement": "Crop height (cm) at 14 DAA", "setting": "corn crop [1]; corn variety XB 8010, flucarbazone 30 g ai/ha", "value": 11, "unit": "cm"},
      {"measurement": "Phytotoxicity (%) in corn crop", "setting": "corn crop [2]; 3DAA & 5DAA, sub-column 1 of 3 (unlabelled)", "value": 0, "unit": "%"},
      {"measurement": "Phytotoxicity (%) in corn crop", "setting": "corn crop [2]; 3DAA & 5DAA, sub-column 3 of 3 (unlabelled)", "value": 0, "unit": "%"},
      {"measurement": "Phytotoxicity (%) in corn crop", "setting": "corn crop [2]; 3DAA & 5DAA", "value": 0, "unit": "%"},
      {"measurement": "Phytotoxicity (%) in corn crop", "setting": "corn crop [2]; 7DAA, sub-column 1 of 3 (unlabelled)", "value": 28.8, "unit": "%"},
      {"measurement": "Phytotoxicity (%) in corn crop", "setting": "corn crop [2]; 7DAA, sub-column 3 of 3 (unlabelled)", "value": 28.8, "unit": "%"},
      {"measurement": "Phytotoxicity (%) in corn crop", "setting": "corn crop [2]; 7DAA", "value": 28.8, "unit": "%"},
      {"measurement": "Phytotoxicity (%) in corn crop", "setting": "corn crop [2]; 14 DAA, sub-column 1 of 3 (unlabelled)", "value": 51.3, "unit": "%"},
      {"measurement": "Phytotoxicity (%) in corn crop", "setting": "corn crop [2]; 14 DAA, sub-column 3 of 3 (unlabelled)", "value": 50, "unit": "%"},
      {"measurement": "Phytotoxicity (%) in corn crop", "setting": "corn crop [2]; 14 DAA", "value": 53.8, "unit": "%"},
      {"measurement": "Phytotoxicity (%) in corn crop", "setting": "corn crop [2]; 21DAA, sub-column 1 of 3 (unlabelled)", "value": 50, "unit": "%"},
      {"measurement": "Phytotoxicity (%) in corn crop", "setting": "corn crop [2]; 21DAA, sub-column 3 of 3 (unlabelled)", "value": 46.3, "unit": "%"},
      {"measurement": "Phytotoxicity (%) in corn crop", "setting": "corn crop [2]; 21DAA", "value": 51.3, "unit": "%"},
      {"measurement": "Phytotoxicity (%) in corn crop", "setting": "corn crop [2]; 28DAA, sub-column 1 of 3 (unlabelled)", "value": 47.5, "unit": "%"},
      {"measurement": "Phytotoxicity (%) in corn crop", "setting": "corn crop [2]; 28DAA, sub-column 3 of 3 (unlabelled)", "value": 39.8, "unit": "%"},
      {"measurement": "Phytotoxicity (%) in corn crop", "setting": "corn crop [2]; 28DAA", "value": 56.3, "unit": "%"},
      {"measurement": "Phytotoxicity (%) in corn crop", "setting": "corn crop [2]; 35DAA, sub-column 1 of 3 (unlabelled)", "value": 44.9, "unit": "%"},
      {"measurement": "Phytotoxicity (%) in corn crop", "setting": "corn crop [2]; 35DAA, sub-column 3 of 3 (unlabelled)", "value": 39.9, "unit": "%"},
      {"measurement": "Phytotoxicity (%) in corn crop", "setting": "corn crop [2]; 35DAA", "value": 53.8, "unit": "%"},
      {"measurement": "Phytotoxicity (%) in corn crop", "setting": "corn crop [2]; 42DAA, sub-column 1 of 3 (unlabelled)", "value": 42.4, "unit": "%"},
      {"measurement": "Phytotoxicity (%) in corn crop", "setting": "corn crop [2]; 42DAA, sub-column 3 of 3 (unlabelled)", "value": 38.7, "unit": "%"},
      {"measurement": "Phytotoxicity (%) in corn crop", "setting": "corn crop [2]; 42DAA", "value": 48.7, "unit": "%"},
      {"measurement": "% phytotoxicity levels in corn crop", "setting": "corn crop [2]; at 14 DAA, highest level stated in text", "value": "up to 50%"},
      {"measurement": "% phytotoxicity in corn crop", "setting": "corn crop [2]; over a period of one month after application", "value": "significant damage"},
      {"measurement": "% Efficacy for control of weeds", "setting": "redroot pigweed; 7 DAA", "value": 22.5, "unit": "%"},
      {"measurement": "% Efficacy for control of weeds", "setting": "redroot pigweed; 14 DAA", "value": 42.5, "unit": "%"},
      {"measurement": "% Efficacy for control of weeds", "setting": "redroot pigweed; 21 DAA", "value": 45, "unit": "%"},
      {"measurement": "% Efficacy for control of weeds", "setting": "redroot pigweed; 28 DAA", "value": 48.8, "unit": "%"},
      {"measurement": "% Efficacy for control of weeds", "setting": "redroot pigweed; 35 DAA", "value": 48.8, "unit": "%"},
      {"measurement": "% Efficacy for control of weeds", "setting": "redroot pigweed; 42 DAA", "value": 48.8, "unit": "%"},
      {"measurement": "% efficacy control of redroot pigweed", "setting": "redroot pigweed; over a duration of one month, corn crop", "value": "reduced % efficacy"},
      {"measurement": "% phytotoxocity of corn crop variety P4285VYHR", "setting": "corn crop [3]; 7DAA", "value": 26, "unit": "ab %"},
      {"measurement": "% phytotoxocity of corn crop variety SYN8A98 TLTG", "setting": "corn crop [3]; 7DAA", "value": 19, "unit": "cd %"},
      {"measurement": "% phytotoxocity of corn crop variety XB 8010", "setting": "corn crop [3]; 7DAA", "value": 28, "unit": "a %"},
      {"measurement": "% phytotoxocity of corn crop variety P4285VYHR", "setting": "corn crop [3]; 14 DAA", "value": 34, "unit": "b %"},
      {"measurement": "% phytotoxocity of corn crop variety SYN8A98 TLTG", "setting": "corn crop [3]; 14 DAA", "value": 47, "unit": "ab %"},
      {"measurement": "% phytotoxocity of corn crop variety XB 8010", "setting": "corn crop [3]; 14 DAA", "value": 52, "unit": "ab %"},
      {"measurement": "% phytotoxocity of corn crop variety P4285VYHR", "setting": "corn crop [3]; 21 DAA", "value": 32, "unit": "b %"},
      {"measurement": "% phytotoxocity of corn crop variety SYN8A98 TLTG", "setting": "corn crop [3]; 21 DAA", "value": 48, "unit": "bc %"},
      {"measurement": "% phytotoxocity of corn crop variety XB 8010", "setting": "corn crop [3]; 21 DAA", "value": 51, "unit": "ab %"}
    ]}
  ]
}
